Series [1] concerns anaesthetized dog. The series is described as follows: Hypotension in the anaesthetized dog. Conditions: intravenous. It counts as in vivo. As to the method:
(a) Hypotension in the anaesthetized dog
The hypotensive effect was determined for at least one hour after the intravenous injection of a dose of the compound under study in the dog previously anaesthetized with pentobarbital (30 mg/kg) and atropinized (1 mg/kg).
Arterial pression was registered on a femoral artery.
The results were expressed as follows: […]
++ for a lasting reduction of about 30% in arterial pressure
+ for a short-lived reduction of about 20% in arterial pressure.

Series [2] concerns β-receptors. The series is described as follows: Antiadrenergic properties: anti-β effect (reduction of epinephrine-accelerated heart-rate). It counts as in vivo. As to conditions: intravenous, anaesthetized atropinized dog. On the procedure:
(§1) The purpose of this test was to determine the capacity of the compounds under study to reduce epinephrine-increased blood-pressure (anti-α effect) and epinephrine-accelerated heart-rate (anti-β effect) in the dog previously anaesthetized with pentobarbital (30 mg/kg) and atropinized (1 mg/kg).
The percentage of reduction of the epinephrine-induced acceleration of heart-rate obtained by means of the compounds under study in comparison with the tachycardia previously measured (about 70 beats) was then registered.
(§2) In both cases, the results were expressed as follows: […]
(§3) + for a <50%-reduction of the increase in pressure or cardiac frequency
(§4) ++ for a ≥50-reduction of the increase in pressure or cardiac frequency
(§5) +++ for the almost complete supression of the increase in pressure or cardiac frequency.

Series [3] deals with α-receptors. The series is described as follows: Antiadrenergic properties: anti-α effect (reduction of epinephrine-increased blood-pressure). In kind it is in vivo, dog. As to conditions: intravenous; for Anti-α effect: anaesthetized atropinized dog, epinephrine. On the procedure: as §1
After that, the dose of epinephrine so determined was administered followed by a dose, by intravenous route, of the compound to be studied. The percentage of reduction of hypertension produced by the compound under study in comparison with the hypertension previously obtained (about 100 mm.Hg) was then registered.
as §2, §3, §4, §5

The test system of series [4] is mice. Briefly: Central depressant properties (passage of mice through a light ray). In kind it is in vivo. As to conditions: intragastric, 30 minutes after administration, recorded over 15 minutes, dose with depressant action in 50% of the animals; for ED50: Mus musculus, po, 0.5 h, read-out: AD50 (the source's name). On the procedure:
D. Central depressant properties
Thirty minutes after the intragastric administration of a dose of the compound to be studied, batches of mice were placed in a container through which a ray of light was projected. By means of a photoelectric cell, a record was made of the number of animals passing through the light ray over a period of 15 minutes. The same test was performed with control animals.
The AD50 was then calculated i.e. the dose of the compound under study which provoked a depressant action in 50% of the animals.

Series [5] deals with anaesthetized dog. The series is described as follows: Reserpine-like properties (cardiac frequency and contractility of the myocardium). In kind it is in vivo. As to conditions: for change in vivo at 1 mg/kg: Canis lupus familiaris, intravenous, anaesthetized dog. The source says:
C. Reserpine-like properties
the increase in cardiac frequency
the increase of (dP/dt) at its maximum, i.e. the increase of the maximum of the derivative of the left ventricular pressure in relation to time.
This derivative thus represented an index of contractility.

Series [6] is described as follows: Acute toxicity in mice. As to conditions: mouse, in vivo. The source says: (§6) Acute toxicity tests were also undertaken in rats and mice with compounds of the invention.
Series [7] has as its system rats. The series is described as follows: Acute toxicity in rats. In kind it is in vivo. Conditions: intragastric route, fumarate form.
Excerpt: as §6

A short description of series [8]: Acute toxicity in rats. In kind it is in vivo. As to conditions: rat, in vivo.
Excerpt: as §6

Series [9] concerns Okamoto rat. Briefly: Hypotension in the Okamoto rat. It counts as in vivo. On the procedure: (b) Hypotension in the Okamoto rat
In this trial, the rats used belonged to a race specifically bred to produce animals having high blood-pressure. The arterial pressure of these rats was determined (about 180 mm.Hg) at the beginning of the test and a dose of the compound to be studied was then administered.
The decrease in arterial pressure was registered every hour for 6 hours after the administration of the compound in question.

The mark [10] stands for this setting: (dP/dt) maximum, read-out: increase in the contractility of the myocardium.
[11] abbreviates: read-out: increase in cardiac frequency.
Setting [12] is: ip, intraperitoneal route, sesquioxalate form.
The mark [13] stands for this setting: po, intragastric route, sesquioxalate form.

Structures can show the parent of a compound that is named as a salt. Where two headings read alike, the source gives them in different places.

Regarding `COc1ccc(CCNCC(O)COc2c(C)ncc(CO)c2CO)cc1OC.O=C(O)C(=O)O.O=C(O)C(=O)O` (centres unmarked) [X, 4,5-Dihydroxymethyl-3-[3-(3,4-dimethoxy-phenethylamino)-2-hydroxy-propoxy]-2-methyl-pyridine dioxalate], the “Decrease in arterial pressure” value in [1] (10 mg/kg) is “+ (for a short-lived reduction of about 20% in arterial pressure)”.

In the case of “4,5-Dihydroxymethyl-3-[2-hydroxy-3-(2-phenyl-1-methyl-ethylamino)-propoxy]- 2-methyl-pyridine [B]”, the “Decrease in arterial pressure” value in series [1] (3.5 mg/kg) is recorded as “+ (for a short-lived reduction of about 20% in arterial pressure)”. Further, the Anti-β effect result in series [2] (3.5 mg/kg) is listed as “+++”. Besides, the Anti-α effect entry in series [3] (3.5 mg/kg) is given as “+++”.

As to `Cc1ncc(CO)c(CO)c1OCC(O)CNCCc1ccccc1` (centres unmarked) [Z, 4,5-Dihydroxymethyl-3-(2-hydroxy-3-phenylethyl-amino-propoxy)-2-methyl-pyridine oxalate], in [4], the ED50 came to 33 mg/kg. In addition, the change in vivo at 1 mg/kg in series [5] (setting [10]) and in [5] (setting [11]) was 10 to 30% in each case.

Regarding `Cc1ccc(C(C)C)c(OCCNCC(O)COc2c(C)ncc(CO)c2CO)c1` (centres unmarked) [L, 4,5-Dihydroxymethyl-3-[2-hydroxy-3-(2-isopropyl-5-methyl-phenoxyethylamino)-propoxy]-2-methyl-pyridine], in series [2] (10 mg/kg), the Anti-β effect result is “++ (for a ≥50-reduction of the increase in pressure or cardiac frequency)”. Also, the Anti-α effect result in series [3] (10 mg/kg) is “+++”. Further, the ED50 in [4] came to 40 mg/kg. In addition, the change in vivo at 1 mg/kg in series [5] (setting [10]) and in series [5] (setting [11]) was 10 to 30% in each case.

`Cc1ncc(CO)c(CO)c1OCC(O)CNCCOc1ccccc1C(C)C` (centres unmarked) [P, 4,5-Dihydroxymethyl-3-[2-hydroxy-3-(2-isopropyl-phenoxyethylamino)-propoxy]-2-methyl-pyridine]: the Anti-β effect result in series [2] (2 mg/kg) is listed as “++ (for a ≥50-reduction of the increase in pressure or cardiac frequency)”. Also, the Anti-α effect entry in series [3] (2 mg/kg) is reported as “+++”. Moreover, the ED50 in series [4] came out at 42 mg/kg. For the same molecule, the change in vivo at 1 mg/kg in series [5] (setting [10]) and in series [5] (setting [11]) was 10 to 30% throughout.

Take “4,5-Dihydroxymethyl-3-[3-(2-ethyl-phenoxyethylamino)-2-hydroxy-propoxy]-2-methyl-pyridine [F]”: the “Decrease in arterial pressure” value in series [1] (10 mg/kg) is on record as “+ (for a short-lived reduction of about 20% in arterial pressure)”. In series [2] (10 mg/kg), the Anti-β effect result is recorded as “++ (for a ≥50-reduction of the increase in pressure or cardiac frequency)”. Moreover, the Anti-α effect result in series [3] (10 mg/kg) was “+++”.

In general, LD50 refers to the dose at which mortality reaches 50%. Take `Cc1ccccc1OCCNCC(O)COc1c(C)ncc(CO)c1CO` (centres unmarked) [drawing 41, 4,5-Dihydroxymethyl-3-[2-hydroxy-3-(2-methyl-phenoxyethylamino)-propoxy]-2-methyl-pyridine]: the LD50 amounted to 118 mg/kg in [6] (intravenous route, sesquioxalate form); 290 mg/kg in [6] (setting [12]); 700 mg/kg in series [6] (setting [13]); 320 mg/kg in series [8] (setting [12]); 200 mg/kg in series [8] (iv, fumarate form); 170 mg/kg in [8] (iv, sesquioxalate form). In series [8] (setting [13]), this molecule returned a 50% lethal dose (LD50) of 2200 mg/kg. This molecule showed an LD0 in series [7] greater than 2500 mg/kg.

Turning to `Cc1ccccc1OCCNCC(O)COc1c(C)ncc(CO)c1CO` (centres unmarked) [Compound A, 4,5-dihydroxymethyl-3-[2-hydroxy-3-(2-methyl-phenoxyethylamino)-propoxy]-2-methyl-pyridine], the “Decrease in arterial pressure” value in [1] (2 mg/kg) is “++ (for a lasting reduction of about 30% in arterial pressure)”. Further, the Anti-β effect result in series [2] (10 mg/kg) was “+ (for a <50%-reduction of the increase in pressure or cardiac frequency)”. Moreover, in series [3] (10 mg/kg), the Anti-α effect result is reported as “+++”. The “α-antiadrenergic properties at a dose as low as” value in series [3] (lowest active dose, dog, sesquioxalate) is listed as 2 mg/kg. The “maximum decrease (arterial pressure)” value in series [9] (25 mg/kg, oral route, acute treatment, initial about 180 mm.Hg) stood at 21 mm.Hg. Moreover, the minimal effective dose came to 50 mg/kg in [9] (chronic treatment, involving one single administration, read-out: found to be active at a dose as low as) and 25 mg/kg in [9] (oral route, acute treatment, read-out: provoked hypotension at a dose as low as). Besides, the “activity in acute treatment (ranking)” value in series [9] (oral route, acute treatment) is recorded as “the most active in acute treatment”. Further, the ED50 in series [4] was 50 mg/kg. The change in vivo at 1 mg/kg in [5] (setting [10]) and in [5] (setting [11]) was 10 to 30% in each case. The “effects on cardiac frequency and contractility after reserpine” value in series [5] (dog having previously received reserpine) is “suppressed”.

In the case of “4,5-Dihydroxymethyl-3-[2-hydroxy-3-(2-methoxy-phenoxyethylamino)-propoxy]-2-methyl-pyridine”, in series [2] (10 mg/kg), the Anti-β effect entry is given as “+ (for a <50%-reduction of the increase in pressure or cardiac frequency)”. Moreover, the Anti-α effect entry in series [3] (10 mg/kg) was “++ (for a ≥50-reduction of the increase in pressure or cardiac frequency)”. Also, the AD50 in series [4] is given as 33 mg/kg.

“4,5-Dihydroxymethyl-3-[3-(2,6-dimethyl-phenoxyethylamino)-2-hydroxy-propoxy]-2-methyl-pyridine [G]”: in [1] (2 mg/kg), the “Decrease in arterial pressure” value is reported as “++ (for a lasting reduction of about 30% in arterial pressure)”. The Anti-β effect entry in series [2] (2 mg/kg) is on record as “+ (for a <50%-reduction of the increase in pressure or cardiac frequency)”. Further, the Anti-α effect result in series [3] (2 mg/kg) is given as “+++”.

In the case of `COc1ccccc1OCCNCC(O)COc1c(C)ncc(CO)c1CO` (centres unmarked) [drawing 42], the LD50 was greater than 5000 mg/kg in series [6] (po, intragastric route (salt form not stated)) and 245 mg/kg in [8] (iv, intravenous route (salt form not stated)).

On to “4,5-Dihydroxymethyl-3-[2-hydroxy-3-(2-phenoxy-2-methyl-ethylamino)-propoxy]-2-methyl-pyridine [J]”, for which the Anti-α effect result in [3] (10 mg/kg) is “+++”. Moreover, in [4], the AD50 is 47 mg/kg.

For `CCCc1ccccc1OCCNCC(O)COc1c(C)ncc(CO)c1CO` (centres unmarked) [N, 4,5-Dihydroxymethyl-3-[2-hydroxy-3-(2-n-propyl-phenoxyethylamino)-propoxy]-2-methyl-pyridine], the Anti-β effect result in series [2] (7 mg/kg) is “++ (for a ≥50-reduction of the increase in pressure or cardiac frequency)”. For the same molecule, in [3] (7 mg/kg), the Anti-α effect result is reported as “+++”. Further, the ED50 in [4] is 42 mg/kg.

Turning to “4,5-Dihydroxymethyl-3-[2-hydroxy-3-(3-methyl-phenoxyethylamino)-propoxy]-2- methyl-pyridine”, the “Decrease in arterial pressure” value in series [1] (10 mg/kg) is reported as “+ (for a short-lived reduction of about 20% in arterial pressure)”. In series [2] (7.5 mg/kg), the Anti-β effect entry is listed as “+ (for a <50%-reduction of the increase in pressure or cardiac frequency)”. In [3] (7.5 mg/kg), the Anti-α effect entry is “+++”.

The record behind these values is patent US4374841A, “Pyridoxine derivatives, and use in therapeutics” (S. A. Labaz N.V., priority 1980, dated 1983).
